Source: ChEMBL document CHEMBL4219213, “The design, synthesis and structure-activity relationships associated with C28 amine-based betulinic acid derivatives as inhibitors of HIV-1 maturation” (Bioorg Med Chem Lett, 2018)

Tests used:
in vitro [1] = details: human, MT2 cells
Description: Cytotoxicity against human MT2 cells

[2] = Dissociation constant, pKa of the compound; type: physicochemical
in vitro [3] = details: rat, liver microsomes
Description: Half life in rat liver microsomes at 0.5 uM in presence of NADPH by LC-MS/MS method

cells [4] = details: Human immunodeficiency virus 1, subtype B NL4-3, MT2
in vitro [5] = details: human, liver microsomes
Description: Half life in human liver microsomes at 0.5 uM in presence of NADPH by LC-MS/MS method

in vitro [6] = details: mouse, liver microsomes
Description: Half life in mouse liver microsomes at 0.5 uM in presence of NADPH by LC-MS/MS method

Rattus norvegicus [7] = assay: Toxicity in Sprague-Dawley rat at 5 to 124 mg/kg, po via gavage up to 24 hrs by LC-MS/MS analysis; type: organism-based; details: in vivo
cells [8] = details: Human immunodeficiency virus 1, subtype B NL4-3, MT2; remark: listed apart in the source
in vivo [9] = details: Sprague-Dawley, rat, po, 5 mg/kg
in vivo [10] = details: Sprague-Dawley, rat, po, 5 mg/kg; remark: listed apart in the source
in vivo [11] = details: Sprague-Dawley, rat, plasma, po, 5 mg/kg
Description: Plasma concentration in Sprague-Dawley rat at 5 mg/kg, po via gavage after 24 hrs by LC-MS/MS analysis

[12] = AUClast in Sprague-Dawley rat at 124 mg/kg, po via gavage up to 24 hrs by LC-MS/MS analysis; type: ADME, organism-based; design: time < 24 hr, dose 124 mg/kg, route oral; details: in vivo
[13] = Total AUC in Sprague-Dawley rat at 5 mg/kg, po via gavage up to 24 hrs by LC-MS/MS analysis; type: ADME, organism-based; design: dose 5 mg/kg, time AUCmax, route oral; details: in vivo
[14] = Cmax in Sprague-Dawley rat at 124 mg/kg, po via gavage by LC-MS/MS analysis; type: ADME, organism-based; design: dose 124 mg/kg, route oral; details: in vivo
[15] = AUClast in Sprague-Dawley rat at 5 mg/kg, po via gavage up to 24 hrs by LC-MS/MS analysis; type: ADME, organism-based; design: time < 24 hr, dose 5 mg/kg, route oral; details: in vivo
[16] = Tmax in Sprague-Dawley rat at 35 mg/kg, po via gavage by LC-MS/MS analysis; type: ADME, organism-based; details: in vivo
[17] = Dose normalized plasma concentration in Sprague-Dawley rat at 5 mg/kg, po via gavage after 24 hrs by LC-MS/MS analysis; type: ADME, organism-based; details: in vivo
[18] = Cmax in Sprague-Dawley rat at 35 mg/kg, po via gavage by LC-MS/MS analysis; type: ADME, organism-based; design: dose 35 mg/kg, route oral; details: in vivo
[19] = Total AUC in Sprague-Dawley rat at 124 mg/kg, po via gavage up to 24 hrs by LC-MS/MS analysis; type: ADME, organism-based; design: dose 124 mg/kg, time AUCmax, route oral; details: in vivo
[20] = AUClast in Sprague-Dawley rat at 11.8 mg/kg, po via gavage up to 24 hrs by LC-MS/MS analysis; type: ADME, organism-based; design: dose 11.8 mg/kg, time < 24 hr, route oral; details: in vivo
[21] = Tmax in Sprague-Dawley rat at 11.8 mg/kg, po via gavage by LC-MS/MS analysis; type: ADME, organism-based; details: in vivo
[22] = Oral bioavailability in Sprague-Dawley rat at 124 mg/kg via gavage up to 24 hrs by LC-MS/MS analysis; type: ADME, organism-based; details: in vivo
Rattus norvegicus [23] = assay: Extrapolated AUC in Sprague-Dawley rat at 35 mg/kg, po via gavage up to 24 hrs by LC-MS/MS analysis; type: ADME, organism-based; details: in vivo
[24] = Dose normalized plasma concentration in Sprague-Dawley rat at 124 mg/kg, po via gavage after 24 hrs by LC-MS/MS analysis; type: ADME, organism-based; details: in vivo
[25] = Plasma concentration in Sprague-Dawley rat at 11.8 mg/kg, po via gavage after 24 hrs by LC-MS/MS analysis; type: ADME, organism-based
Rattus norvegicus [26] = assay: Dose normalized AUC in Sprague-Dawley rat at 11.8 mg/kg, po via gavage up to 24 hrs by LC-MS/MS analysis; type: ADME, organism-based; details: in vivo
[27] = Oral bioavailability in Sprague-Dawley rat at 35 mg/kg via gavage up to 24 hrs by LC-MS/MS analysis; type: ADME, organism-based; details: in vivo
Rattus norvegicus [28] = assay: Extrapolated AUC in Sprague-Dawley rat at 124 mg/kg, po via gavage up to 24 hrs by LC-MS/MS analysis; type: ADME, organism-based; details: in vivo
[29] = Plasma concentration in Sprague-Dawley rat at 124 mg/kg, po via gavage after 24 hrs by LC-MS/MS analysis; type: ADME, organism-based
[30] = AUClast in Sprague-Dawley rat at 35 mg/kg, po via gavage up to 24 hrs by LC-MS/MS analysis; type: ADME, organism-based; design: time < 24 hr, dose 35 mg/kg, route oral; details: in vivo
[31] = Total AUC in Sprague-Dawley rat at 11.8 mg/kg, po via gavage up to 24 hrs by LC-MS/MS analysis; type: ADME, organism-based; design: dose 11.8 mg/kg, time AUCmax, route oral; details: in vivo
Rattus norvegicus [32] = assay: Dose normalized AUC in Sprague-Dawley rat at 35 mg/kg, po via gavage up to 24 hrs by LC-MS/MS analysis; type: ADME, organism-based; details: in vivo
[33] = Oral bioavailability in Sprague-Dawley rat at 5 mg/kg via gavage up to 24 hrs by LC-MS/MS analysis; type: ADME, organism-based; details: in vivo
[34] = Cmax in Sprague-Dawley rat at 11.8 mg/kg, po via gavage by LC-MS/MS analysis; type: ADME, organism-based; design: dose 11.8 mg/kg, route oral; details: in vivo
[35] = Total AUC in Sprague-Dawley rat at 35 mg/kg, po via gavage up to 24 hrs by LC-MS/MS analysis; type: ADME, organism-based; design: dose 35 mg/kg, time AUCmax, route oral; details: in vivo
Rattus norvegicus [36] = assay: Extrapolated AUC in Sprague-Dawley rat at 11.8 mg/kg, po via gavage up to 24 hrs by LC-MS/MS analysis; type: ADME, organism-based; details: in vivo
Rattus norvegicus [37] = assay: Dose normalized AUC in Sprague-Dawley rat at 124 mg/kg, po via gavage up to 24 hrs by LC-MS/MS analysis; type: ADME, organism-based; details: in vivo
[38] = Tmax in Sprague-Dawley rat at 5 mg/kg, po via gavage by LC-MS/MS analysis; type: ADME, organism-based; details: in vivo
[39] = Oral bioavailability in Sprague-Dawley rat at 11.8 mg/kg via gavage up to 24 hrs by LC-MS/MS analysis; type: ADME, organism-based; details: in vivo
[40] = Dose normalized plasma concentration in Sprague-Dawley rat at 35 mg/kg, po via gavage after 24 hrs by LC-MS/MS analysis; type: ADME, organism-based; details: in vivo
Rattus norvegicus [41] = assay: Extrapolated AUC in Sprague-Dawley rat at 5 mg/kg, po via gavage up to 24 hrs by LC-MS/MS analysis; type: ADME, organism-based; details: in vivo
Rattus norvegicus [42] = assay: Dose normalized AUC in Sprague-Dawley rat at 5 mg/kg, po via gavage up to 24 hrs by LC-MS/MS analysis; type: ADME, organism-based; details: in vivo
[43] = Cmax in Sprague-Dawley rat at 5 mg/kg, po via gavage by LC-MS/MS analysis; type: ADME, organism-based; design: dose 5 mg/kg, route oral; details: in vivo
[44] = Plasma concentration in Sprague-Dawley rat at 35 mg/kg, po via gavage after 24 hrs by LC-MS/MS analysis; type: ADME, organism-based
[45] = Dose normalized plasma concentration in Sprague-Dawley rat at 11.8 mg/kg, po via gavage after 24 hrs by LC-MS/MS analysis; type: ADME, organism-based; details: in vivo
[46] = Tmax in Sprague-Dawley rat at 124 mg/kg, po via gavage by LC-MS/MS analysis; type: ADME, organism-based; details: in vivo

SMILES: C=C(C)[C@@H]1CC[C@]2(CNCCN3CCC(F)(F)CC3)CC[C@]3(C)[C@H](CC[C@@H]4[C@@]5(C)CC=C(c6ccc(C(=O)O)cc6)C(C)(C)[C@@H]5CC[C@]43C)[C@@H]12
- CC50 (in vitro [1]): 8500 nM
- pKa [2]: 8.6
- half-life at 0.5 µM (in vitro [3]): > 2 h
- IC50 (cells [4]): 57 nM
- half-life at 0.5 µM (in vitro [5]): > 2 h
- half-life at 0.5 µM (in vitro [6]): > 2 h

SMILES: C=C(C)[C@@H]1CC[C@]2(CNCCCN3CCS(=O)(=O)CC3)CC[C@]3(C)[C@H](CC[C@@H]4[C@@]5(C)CC=C(c6ccc(C(=O)O)cc6)C(C)(C)[C@@H]5CC[C@]43C)[C@@H]12
- Activity (Rattus norvegicus [7]): Non-Toxic
- CC50 (in vitro [1]): 3500 nM
- EC50 (cells [8]): 20 nM
- AUC(0-t) at 6 h (in vivo [9]): 1.71 µM·h
- AUC(0-t) at 24 h (in vivo [10]): 2.81 µM·h

SMILES: C=C(C)[C@@H]1CC[C@]2(CN(C)CCCN3CCS(=O)(=O)CC3)CC[C@]3(C)[C@H](CC[C@@H]4[C@@]5(C)CC=C(c6ccc(C(=O)O)cc6)C(C)(C)[C@@H]5CC[C@]43C)[C@@H]12
- CC50 (in vitro [1]): 10000 nM
- AUC(0-t) at 6 h (in vivo [9]): 4.83 µM·h
- half-life at 0.5 µM (in vitro [3]): > 2 h
- IC50 (cells [4]): 26 nM
- AUC(0-t) at 24 h (in vivo [10]): 9.06 µM·h
- half-life at 0.5 µM (in vitro [5]): > 2 h
- half-life at 0.5 µM (in vitro [6]): > 2 h

SMILES: C=C(C)[C@@H]1CC[C@]2(CNCCCN3CCOCC3)CC[C@]3(C)[C@H](CC[C@@H]4[C@@]5(C)CC=C(c6ccc(C(=O)O)cc6)C(C)(C)[C@@H]5CC[C@]43C)[C@@H]12
- CC50 (in vitro [1]): 2200 nM
- pKa [2]: 8.2
- AUC(0-t) at 6 h (in vivo [9]): 0.045 µM·h
- IC50 (cells [4]): 28 nM

SMILES: C=C(C)[C@@H]1CC[C@]2(C(=O)NCCN(C)C)CC[C@]3(C)[C@H](CC[C@@H]4[C@@]5(C)CC=C(c6ccc(C(=O)O)cc6)C(C)(C)[C@@H]5CC[C@]43C)[C@@H]12
- EC50 (cells [8]): 201 nM
- half-life at 0.5 µM (in vitro [3]): > 2 h
- concentration at 24 h (in vivo [11]): 27 nM
- IC50 (cells [4]): 31 nM
- AUC(0-t) at 24 h (in vivo [10]): 3.81 µM·h
- half-life at 0.5 µM (in vitro [5]): > 2 h
- half-life at 0.5 µM (in vitro [6]): > 2 h

SMILES: C=C(C)[C@@H]1CC[C@]2(CNCCN(C)C)CC[C@]3(C)[C@H](CC[C@@H]4[C@@]5(C)CC=C(c6ccc(C(=O)O)cc6)C(C)(C)[C@@H]5CC[C@]43C)[C@@H]12
- CC50 (in vitro [1]): 1200 nM
- half-life at 0.5 µM (in vitro [3]): > 2 h
- IC50 (cells [4]): 21 nM
- AUC(0-t) at 24 h (in vivo [10]): 1.28 µM·h
- half-life at 0.5 µM (in vitro [5]): > 2 h
- half-life at 0.5 µM (in vitro [6]): > 2 h

SMILES: C=C(C)[C@@H]1CC[C@]2(CNCCN3CCOCC3)CC[C@]3(C)[C@H](CC[C@@H]4[C@@]5(C)CC=C(c6ccc(C(=O)O)cc6)C(C)(C)[C@@H]5CC[C@]43C)[C@@H]12
- CC50 (in vitro [1]): 5000 nM
- pKa [2]: 8.2
- half-life at 0.5 µM (in vitro [3]): > 2 h
- IC50 (cells [4]): 15 nM
- half-life at 0.5 µM (in vitro [5]): 1.62 h
- half-life at 0.5 µM (in vitro [6]): 1.5 h

SMILES: C=C(C)[C@@H]1CC[C@]2(CNCCCN3CCS(=O)(=O)CC3)CC[C@]3(C)[C@H](CC[C@@H]4[C@@]5(C)CC=C(c6ccc(C(=O)O)cc6)C(C)(C)[C@@H]5CC[C@]43C)[C@@H]12.Cl
- AUC(0-t) at 24 h [12]: 23.2 µM·h
- AUC at 24 h [13]: 3.25 µM·h
- Cmax [14]: 697 nM
- AUC(0-t) at 24 h [15]: 2.99 µM·h
- Tmax [16]: 5.3 h
- Cp/dose [17]: 6.8 nM
- Cmax [18]: 451 nM
- AUC at 24 h [19]: 29.1 µM·h
- AUC(0-t) at 24 h [20]: 5.31 µM·h
- Tmax [21]: 4.7 h
- bioavailability [22]: 4%
- %AUCextra (Rattus norvegicus [23]): 14%
- Cp/dose [24]: 5.1 nM
- concentration at 24 h [25]: 91 nM
- AUC/dose (Rattus norvegicus [26]): 461 µM·h
- bioavailability [27]: 7%
- %AUCextra (Rattus norvegicus [28]): 17%
- concentration at 24 h [29]: 635 nM
- AUC(0-t) at 24 h [30]: 11.4 µM·h
- AUC at 24 h [31]: 5.44 µM·h
- AUC/dose (Rattus norvegicus [32]): 378 µM·h
- bioavailability [33]: 12%
- Cmax [34]: 285 nM
- AUC at 24 h [35]: 13.2 µM·h
- %AUCextra (Rattus norvegicus [36]): 2%
- AUC/dose (Rattus norvegicus [37]): 235 µM·h
- Tmax [38]: 6.7 h
- bioavailability [39]: 8%
- Cp/dose [40]: 6.7 nM
- concentration at 24 h (in vivo [11]): 34 nM
- %AUCextra (Rattus norvegicus [41]): 8%
- AUC/dose (Rattus norvegicus [42]): 650 µM·h
- Cmax [43]: 232 nM
- concentration at 24 h [44]: 234 nM
- Cp/dose [45]: 7.7 nM
- Tmax [46]: 17.3 h
